The target of experiment [1] is human recombinant BACE2 (Homo sapiens (Human), UniProt Q9Y5Z0). The experiment is described as follows: In vitro enzymatic BACE2 FRET assay. It counts as biochemical. Conditions: read-out: IC50 IP (μM) BACE2 enzyme. The essentials:
(§1)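 Reactions were initiated by adding 50 nM of a peptide carrying fluorophore and quencher on opposite sides of the cleavage site and ran for one hour. Tris buffer then brought the pH to neutrality, ending the reaction, and fluorescence was measured (488 nm excitation, 590 nm emission).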

Experiment [2] relates to Aβ 40 in rat CSF. The experiment is described as follows: In vivo inhibition of beta-secretase: Aβ40 reduction in rat CSF. Conditions: 10 mpk, after 4 h. The essentials:
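Male Sprague Dawley rats (200 g) dosed orally in 2% HPMC, 1% Tween80, pH 2.2, at 3, 10 or 30 mg/kg; CSF and brain taken 4 h later. Brain homogenate centrifuged at 355,000 g; Aβ40 measured by ECL sandwich ELISA (4G8 capture, Abeta40 C-terminal Fab detection), as % reduction versus vehicle controls.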

Experiment [3] concerns the target human recombinant BACE1 (Homo sapiens (Human), UniProt P56817). Put plainly: In vitro enzymatic BACE1 FRET assay. The class given is biochemical. Conditions: read-out: IC50 IP (μM) BACE1 enzyme. A digest of the protocol: as §1
The subject of experiment [4] is Aβ 40 in rat brain. Put plainly: In vivo inhibition of beta-secretase: Aβ40 reduction in rat brain. As to conditions: 10 mpk, after 4 h. A digest of the protocol: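 Rats were dosed by oral gavage at up to 100 mg/kg in 2% HPMC, 1% Tween80, pH 2.2, with vehicle-only controls. Supernatant Aβ40 was measured by ECL sandwich ELISA with biotinylated-4G8 capture and C-terminal Fab40 detection.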

The subject of experiment [5] is Aβ40 in conditioned medium of cells stably expressing Amyloid Precursor Protein (APP). Put plainly: In vitro BACE-1 cell-based assay (Aβ40 sandwich ELISA). As to conditions: read-out: IC50 IP (μM) BACE1 cell. The essentials: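 Aβ40 in supernatants measured by time-resolved fluorescence sandwich ELISA, with pAb40 as capture and biotin-6E10 as detector antibody, each incubated at 4 °C.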

Experiment [6] concerns the target Recombinant Cat D (Homo sapiens (Human), UniProt P07339). The experiment is described as follows: In vitro enzymatic Cathepsin D (Cat D) FRET assay. The class given is biochemical. As to conditions: read-out: IC50 IP (μM) CatD. A digest of the protocol:
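Recombinant Cat D expressed in CHO cells, assayed in 0.05 M citrate pH 3.5 with 5 mM CHAPS and 10% DMSO final. Reaction started with 20 nM FRET peptide substrate, incubated one hour, then stopped by Tris buffer to neutral pH; fluorescence read at ex 500/em 580 nm.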

Results on twelve compounds are retold here after US20160046618A1, “Cyclopropyl Fused Thiazin-2-Amine Compounds as Beta-Secretase Inhibitors and Methods of Use” (AMGEN INC., priority 2014, published 2016).

Like-named read-outs stand apart in the source and are kept apart here. A value given as a limit tells only on which side of the number the result lay.

human recombinant BACE1, sequence (P56817 46-501): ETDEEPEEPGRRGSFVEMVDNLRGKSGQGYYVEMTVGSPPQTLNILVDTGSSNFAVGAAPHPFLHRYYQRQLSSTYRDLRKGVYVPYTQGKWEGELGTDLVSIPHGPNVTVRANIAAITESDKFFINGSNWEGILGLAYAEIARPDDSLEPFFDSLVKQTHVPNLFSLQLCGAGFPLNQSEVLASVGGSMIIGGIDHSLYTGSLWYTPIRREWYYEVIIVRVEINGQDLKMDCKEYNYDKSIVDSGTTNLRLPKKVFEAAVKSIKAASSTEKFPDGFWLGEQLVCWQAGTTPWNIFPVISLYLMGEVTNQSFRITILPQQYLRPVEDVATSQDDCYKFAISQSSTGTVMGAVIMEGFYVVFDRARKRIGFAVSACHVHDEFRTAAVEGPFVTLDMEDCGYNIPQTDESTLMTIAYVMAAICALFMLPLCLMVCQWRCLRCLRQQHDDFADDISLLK
Recombinant Cat D, sequence (P07339 65-412): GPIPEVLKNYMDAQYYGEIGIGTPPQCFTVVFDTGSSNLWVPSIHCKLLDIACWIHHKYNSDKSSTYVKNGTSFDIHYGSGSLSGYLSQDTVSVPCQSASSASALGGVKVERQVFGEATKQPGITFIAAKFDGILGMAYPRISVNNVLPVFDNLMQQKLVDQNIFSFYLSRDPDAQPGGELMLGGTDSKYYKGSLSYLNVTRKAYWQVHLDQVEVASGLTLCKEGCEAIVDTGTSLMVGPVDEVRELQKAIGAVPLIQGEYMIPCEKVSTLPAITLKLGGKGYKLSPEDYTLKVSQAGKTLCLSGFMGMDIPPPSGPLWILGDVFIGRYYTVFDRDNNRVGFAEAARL
human recombinant BACE2, sequence (Q9Y5Z0 63-518): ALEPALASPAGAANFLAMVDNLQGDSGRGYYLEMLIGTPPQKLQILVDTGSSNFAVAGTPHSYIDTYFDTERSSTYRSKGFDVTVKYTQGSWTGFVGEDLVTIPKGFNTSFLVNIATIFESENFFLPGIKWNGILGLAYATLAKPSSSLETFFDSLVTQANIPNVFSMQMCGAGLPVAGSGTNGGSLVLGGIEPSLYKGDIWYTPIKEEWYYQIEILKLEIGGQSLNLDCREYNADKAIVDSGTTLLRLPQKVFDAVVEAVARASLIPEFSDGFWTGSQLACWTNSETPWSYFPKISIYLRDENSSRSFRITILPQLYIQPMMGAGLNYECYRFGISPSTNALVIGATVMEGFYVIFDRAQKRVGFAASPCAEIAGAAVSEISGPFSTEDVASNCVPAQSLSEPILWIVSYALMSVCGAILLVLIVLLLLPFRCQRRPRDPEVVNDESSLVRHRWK

As to `C[C@]1(c2cc(Nc3ncnc4cc(C#N)cnc34)cc(F)c2F)N=C(N)S[C@@]2(C(F)F)C[C@@H]12` [Example 95, 4-((3-((1S,5S,6S)-3-amino-1-(difluoromethyl)-5-methyl-2-thia-4-azabicyclo[4.1.0]hept-3-en-5-yl)-4,5-difluorophenyl)amino)pyrido[3,2-d]pyrimidine-7-carbonitrile], the IC50 in experiment [1] (BACE2 FRET enzyme assay) is 0.00837 µM; in experiment [3] (BACE1 FRET enzyme assay), 0.00426 µM; in experiment [5] (BACE1 cell-based assay), 0.0138 µM; in experiment [6] (Cathepsin D FRET enzyme assay), 133 µM. Also, the “% Aβ 40 reduction in rat CSF at 10 mpk” value in experiment [2] is listed as 69%. The “% Aβ 40 reduction in rat brain at 10 mpk” value in experiment [4] stood at 60%.
Regarding `C#CCOc1cnc(C(=O)Nc2cnc(OC)c([C@@]3(C)N=C(N)S[C@@]4(CF)C[C@H]43)c2)cn1` [Example 612, N-(5-((1S,5S,6S)-3-amino-1-(fluoromethyl)-5-methyl-2-thia-4-azabicyclo[4.1.0]hept-3-en-5-yl)-6-methoxy-3-pyridinyl)-5-(2-propyn-1-yloxy)-2-pyrazinecarboxamide], the IC50 in experiment [1] came to 0.0544 µM; in experiment [3], 0.00115 µM; in experiment [5], 0.00103 µM; in experiment [6], 196 µM. In addition, in experiment [2], the “% Aβ 40 reduction in rat CSF at 10 mpk” value came to 84%. Also, in experiment [4], the “% Aβ 40 reduction in rat brain at 10 mpk” value was 82%.
For the compound `C#CCOc1cnc2c(Nc3cc(F)c(F)c([C@@]4(C)N=C(N)S[C@@]5(COC)C[C@H]54)c3)nccc2n1` [Example 627, N-(3-((1S,5S,6S)-3-amino-1-(methoxymethyl)-5-methyl-2-thia-4-azabicyclo[4.1.0]hept-3-en-5-yl)-4,5-difluorophenyl)-2-(2-propyn-1-yloxy)pyrido[3,4-b]pyrazin-5-amine], the IC50 was found to be 0.0384 µM in experiment [1], 0.00114 µM in experiment [3], 0.00428 µM in experiment [5] and 1390 µM in experiment [6]. Moreover, in experiment [2], the “% Aβ 40 reduction in rat CSF at 10 mpk” value is reported as 59%. Also, the “% Aβ 40 reduction in rat brain at 10 mpk” value in experiment [4] worked out at 50%.
For the compound `COC[C@]12C[C@H]1[C@@](C)(c1cc(Nc3nccc4nc(OCc5cocn5)cnc34)cc(F)c1F)N=C(N)S2` [Example 628, N-(3-((1S,5S,6S)-3-amino-1-(methoxymethyl)-5-methyl-2-thia-4-azabicyclo[4.1.0]hept-3-en-5-yl)-4,5-difluorophenyl)-2-(1,3-oxazol-4-ylmethoxy)pyrido[3,4-b]pyrazin-5-amine], the IC50 in experiment [1] was found to be 0.0383 µM; in experiment [3] it was 0.00324 µM; in experiment [5] it was 0.0148 µM; in experiment [6], 443 µM. Moreover, in experiment [2], the “% Aβ 40 reduction in rat CSF at 10 mpk” value amounted to 59%. In addition, the “% Aβ 40 reduction in rat brain at 10 mpk” value in experiment [4] came to 50%.
Consider `COC[C@]12C[C@H]1[C@@](C)(c1cc(Nc3nccc4nc(OCc5ncco5)cnc34)cc(F)c1F)N=C(N)S2` [Example 631, N-(3-((1S,5S,6S)-3-amino-1-(methoxymethyl)-5-methyl-2-thia-4-azabicyclo[4.1.0]hept-3-en-5-yl)-4,5-difluorophenyl)-2-(1,3-oxazol-2-ylmethoxy)pyrido[3,4-b]pyrazin-5-amine], for which the IC50 came out at 0.055 µM in experiment [1], 0.00173 µM in experiment [3], 0.00325 µM in experiment [5] and 475 µM in experiment [6]. Moreover, in experiment [2], the “% Aβ 40 reduction in rat CSF at 10 mpk” value amounted to 52%. Besides, the “% Aβ 40 reduction in rat brain at 10 mpk” value in experiment [4] is given as 47%.
For the compound `Cc1cc(OCc2ncco2)cnc1C(=O)Nc1cc(F)c(F)c([C@@]2(C)N=C(N)S[C@@]3(CF)C[C@H]32)c1` [Example 645, N-(3-((1S,5S,6S)-3-amino-1-(fluoromethyl)-5-methyl-2-thia-4-azabicyclo[4.1.0]hept-3-en-5-yl)-4,5-difluorophenyl)-3-methyl-5-(1,3-oxazol-2-ylmethoxy)-2-pyridinecarboxamide], the IC50 was found to be 0.143 µM in experiment [1], 0.00337 µM in experiment [3], 0.0246 µM in experiment [5] and 477 µM in experiment [6]. The “% Aβ 40 reduction in rat CSF at 10 mpk” value in experiment [2] was 53%. For the same compound, in experiment [4], the “% Aβ 40 reduction in rat brain at 10 mpk” value turned out to be 34%.
Take `C#CCOc1cnc2c(Nc3cnc(F)c([C@@]4(C)N=C(N)S[C@@]5([C@@H](O)C(F)(F)F)C[C@H]54)c3)nccc2n1` [Example 660, (1S)-1-((1S,5S,6S)-3-amino-5-(2-fluoro-5-((2-(2-propyn-1-yloxy)pyrido[3,4-b]pyrazin-5-yl)amino)-3-pyridinyl)-5-methyl-2-thia-4-azabicyclo[4.1.0]hept-3-en-1-yl)-2,2,2-trifluoroethanol]: the IC50 in experiment [1] was determined as 0.0235 µM; in experiment [3], 0.00133 µM; in experiment [5], 0.00345 µM; in experiment [6], 554 µM. The “% Aβ 40 reduction in rat CSF at 10 mpk” value in experiment [2] was 38%. Further, the “% Aβ 40 reduction in rat brain at 10 mpk” value in experiment [4] is given as 26%.
Turning to `C#CCOc1cnc2c(Nc3cnc(F)c([C@@]4(C)N=C(N)S[C@@]5(CO)C[C@H]54)c3)nccc2n1` [Example 662, ((1S,5S,6S)-3-amino-5-(2-fluoro-5-((2-(2-propyn-1-yloxy)pyrido[3,4-b]pyrazin-5-yl)amino)-3-pyridinyl)-5-methyl-2-thia-4-azabicyclo[4.1.0]hept-3-en-1-yl)methanol], the IC50 in experiment [1] is 0.0199 µM; in experiment [3], 0.000437 µM; in experiment [5], 0.00049 µM; in experiment [6] it was 1060 µM. Besides, the “% Aβ 40 reduction in rat CSF at 10 mpk” value in experiment [2] is on record as 40%. The “% Aβ 40 reduction in rat brain at 10 mpk” value in experiment [4] came to 37%.
Regarding `Cc1cc(OCC(F)(F)F)cnc1C(=O)Nc1cc(F)c(F)c([C@@]2(C)N=C(N)S[C@@]3(CF)C[C@H]32)c1` [Example 678, N-(3-((1S,5S,6S)-3-amino-1-(fluoromethyl)-5-methyl-2-thia-4-azabicyclo[4.1.0]hept-3-en-5-yl)-4,5-difluorophenyl)-3-methyl-5-(2,2,2-trifluoroethoxy)-2-pyridinecarboxamide], the IC50 turned out to be 0.579 µM in experiment [1], 0.00612 µM in experiment [3], 0.0286 µM in experiment [5] and 747 µM in experiment [6]. Further, the “% Aβ 40 reduction in rat CSF at 10 mpk” value in experiment [2] amounted to 40%. For the same compound, the “% Aβ 40 reduction in rat brain at 10 mpk” value in experiment [4] was found to be 11%.
As to `Cc1cc(OCC(F)(F)F)cnc1C(=O)Nc1cc(F)c(F)c([C@@]2(C)N=C(N)S[C@@]3(C(F)F)C[C@@H]23)c1` [Example 679, N-(3-((1S,5S,6S)-3-amino-1-(difluoromethyl)-5-methyl-2-thia-4-azabicyclo[4.1.0]hept-3-en-5-yl)-4,5-difluorophenyl)-3-methyl-5-(2,2,2-trifluoroethoxy)-2-pyridinecarboxamide], the IC50 in experiment [1] came out at 0.746 µM; in experiment [3] it was 0.00435 µM; in experiment [5], 0.0495 µM; in experiment [6] it was 375 µM. In addition, the “% Aβ 40 reduction in rat CSF at 10 mpk” value in experiment [2] was 20%. Also, the “% Aβ 40 reduction in rat brain at 10 mpk” value in experiment [4] turned out to be 6%.
Take `Cc1cc(OCC(F)(F)F)cnc1C(=O)Nc1ccc(F)c([C@@]2(C)N=C(N)S[C@@]3(C(F)F)C[C@@H]23)c1` [Example 680, N-(3-((1S,5S,6S)-3-amino-1-(difluoromethyl)-5-methyl-2-thia-4-azabicyclo[4.1.0]hept-3-en-5-yl)-4-fluorophenyl)-3-methyl-5-(2,2,2-trifluoroethoxy)-2-pyridinecarboxamide]: the IC50 in experiment [1] is 0.846 µM; in experiment [3], 0.0139 µM; in experiment [5] it was 0.0153 µM; in experiment [6], 1110 µM. The “% Aβ 40 reduction in rat CSF at 10 mpk” value in experiment [2] amounted to 30%. Further, in experiment [4], the “% Aβ 40 reduction in rat brain at 10 mpk” value turned out to be 8%.
For the compound `Cc1cc(OCC(F)(F)F)cnc1C(=O)Nc1ccc(F)c([C@@]2(C)N=C(N)S[C@@]3(CF)C[C@H]32)c1` [Example 689, N-(3-((1S,5S,6S)-3-amino-1-(fluoromethyl)-5-methyl-2-thia-4-azabicyclo[4.1.0]hept-3-en-5-yl)-4-fluorophenyl)-3-methyl-5-(2,2,2-trifluoroethoxy)-2-pyridinecarboxamide], the IC50 is 0.819 µM in experiment [1], 0.0105 µM in experiment [3], 0.0464 µM in experiment [5] and > 400 µM in experiment [6]. Further, the “% Aβ 40 reduction in rat CSF at 10 mpk” value in experiment [2] turned out to be 38%. Further, the “% Aβ 40 reduction in rat brain at 10 mpk” value in experiment [4] stood at 10%.
